Laboratory results: the supplement of paper PMC12370961

Experiments:
Experiment in all cases: differential drug sensitivity score (dDSS) relative to sarcoma reference cohort mean DSS (DSS units (0-100 scale difference)); higher = more selective sensitivity than reference sarcomas
Settings in all cases: exposure time: 72 h; concentration range: 10-10000 nM
ES-ZH016 = system: ES-ZH016 (patient-derived Ewing sarcoma tumoroid)
Protocol: (§1)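 Drug response profiling of patient-derived Ewing sarcoma and CIC::DUX4 sarcoma tumoroid models (or cells tested directly after isolation from the tumor, 'direct'). The DSS is the normalised AUC (0-100); dDSS is the sample DSS minus the mean DSS of a 34-sarcoma reference cohort profiled in the same lab.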

CDS-ZH001-2 = system: CDS-ZH001-2 (patient-derived CIC-DUX4 sarcoma tumoroid)
Protocol: as §1

CDS-ZH003 = system: CDS-ZH003 (patient-derived CIC-DUX4 sarcoma tumoroid)
Protocol: as §1

CDS-ZH001 = system: CDS-ZH001 (patient-derived CIC-DUX4 sarcoma tumoroid)
Protocol: as §1

ES-ZH016 direct = system: ES-ZH016 direct (Ewing sarcoma cells right after isolation)
Protocol: as §1

CDS-ZH002 direct = system: CDS-ZH002 direct (CIC-DUX4 sarcoma cells right after isolation)
Protocol: as §1

CDS-ZH002 = system: CDS-ZH002 (patient-derived CIC-DUX4 sarcoma tumoroid)
Protocol: as §1

ES-ZH004 = system: ES-ZH004 (patient-derived Ewing sarcoma tumoroid)
Protocol: as §1

ES-ZH008 = system: ES-ZH008 (patient-derived Ewing sarcoma tumoroid)
Protocol: as §1

ES-ZH001 = system: ES-ZH001 (patient-derived Ewing sarcoma tumoroid)
Protocol: as §1

ES-ZH009 = system: ES-ZH009 (patient-derived Ewing sarcoma tumoroid)
Protocol: as §1

ES-ZH002 = system: ES-ZH002 (patient-derived Ewing sarcoma tumoroid)
Protocol: as §1

ES-ZH007 = system: ES-ZH007 (patient-derived Ewing sarcoma tumoroid)
Protocol: as §1

Structure (SMILES)	differential drug sensitivity score (ES-ZH016)	differential drug sensitivity score (CDS-ZH001-2)	differential drug sensitivity score (CDS-ZH003)	differential drug sensitivity score (CDS-ZH001)	differential drug sensitivity score (ES-ZH016 direct)	differential drug sensitivity score (CDS-ZH002 direct)	differential drug sensitivity score (CDS-ZH002)	differential drug sensitivity score (ES-ZH004)	differential drug sensitivity score (ES-ZH008)	differential drug sensitivity score (ES-ZH001)	differential drug sensitivity score (ES-ZH009)	differential drug sensitivity score (ES-ZH002)	differential drug sensitivity score (ES-ZH007)
CC1(C)CCC(CN2CCN(c3ccc(C(=O)NS(=O)(=O)c4ccc(NCC5CCOCC5)c([N+](=O)[O-])c4)c(Oc4cnc5[nH]ccc5c4)c3)CC2)=C(c2ccc(Cl)cc2)C1 [Venetoclax]	-2.6	1.4	-9.4	3.9	5.9	-3.5	-4.7	6.1	7.3	6.9	-1.6	7.9	-4.7
COc1cc(OC)c2c(=O)[nH]c(-c3cc(C)c(OCCO)c(C)c3)nc2c1 [Apabetalone]	-0.7	-0.7	3.6	-0.6	-0.7	-0.7	-0.7	0.6	3.2	-0.7	0.5	0.6	-0.7
N#CC[C@H](C1CCCC1)n1cc(-c2ncnc3[nH]ccc23)cn1 [Ruxolitinib]	1.7	-0.1	1.3	0.9	2.7	-0.8	-0.6	-0.8	-0.8	-0.8	4.4	-0.8	-0.8
Cc1nn(C)c(COc2ccc(N3CCN(S(=O)(=O)N(C)C)CC3)cc2)c1-c1cccc2c(CCCOc3cccc4ccccc34)c(C(=O)O)n(CCN3CCOCC3)c12	-0.8	-0.8	0	4.4	-0.8	-0.8	-0.8	-0.8	-0.8	-0.8	-0.8	-0.4	-0.8
CCN1CCN(Cc2ccc(-c3cc4c(N[C@H](C)c5ccccc5)ncnc4[nH]3)cc2)CC1 [AEE788]	-4.1	-0.2	5.8	-0.7	-6.1	-1.2	-3	-1.1	-0.1	3.6	1.6	0.3	-4
CCC[C@H](NC(=O)/C(C#N)=C/c1cccc(Br)n1)c1ccccc1 [Degrasyn]	-0.8	-1.4	0.7	-1.4	-0.2	-1.4	-1.1	-1.1	0.7	-1.4	-1.4	4.8	-1.4
Nc1ncn([C@@H]2O[C@H](CO)[C@@H](O)[C@H]2O)c(=O)n1 [Azacitidine]	-1.2	-0.6	-1.2	-0.4	-1.2	0.2	0.2	-1.2	-1.2	-1.2	0.6	4.4	-1.2
O=P1(N(CCCl)CCCl)NCCCO1 (stereo not drawn) [Cyclophosphamide]	-0.3	-0.3	-0.3	1.7	-0.3	-0.3	-0.3	-0.3	-0.3	-0.3	-0.3	3.8	-0.3
Cn1c(Nc2ccc(C(F)(F)F)cc2)nc2cc(Oc3ccnc(-c4ncc(C(F)(F)F)[nH]4)c3)ccc21 [RAF-265]	1	0.9	-2.8	-2.9	6.4	3	-6.1	-2.3	5.2	5.1	9.3	6.1	-0.7
O=C(Nc1c[nH]nc1-c1nc2ccc(CN3CCOCC3)cc2[nH]1)NC1CC1 [AT9283]	10.8	7	-2	-1.2	14.2	-0.7	-3.6	4	18.4	24.4	24.5	10.8	6.1
CCCCN(Cc1ccc(C(=O)NO)cc1)C(=O)Nc1ccccc1 [Nexturastat A]	-1.3	5.3	2.1	0.8	4.4	2.4	-0.4	-0.7	5	2.9	0.5	0.9	2.1
CN(NC(=O)CC(=O)NN(C)C(=S)c1ccccc1)C(=S)c1ccccc1 [Elesclomol]	-6	2	-5.7	-6	7.7	-6	-4	40.9	6.3	0.9	-0.7	18.6	28.6
NS(=O)(=O)NCCNc1nonc1/C(=N/O)Nc1ccc(F)c(Br)c1 [Epacadostat]	0.1	-0.7	0.6	-0.7	-0.5	-0.7	-0.7	0	5.6	-0.7	0	-0.2	-0.7
CCN(CC)CCCC(C)Nc1nc(C)cc(Nc2ccc3nc(C)cc(N)c3c2)n1 (stereo not drawn)	-1	9.7	-1	-0.8	-1	2.8	1.1	1.1	-1	-1	-0.9	0.7	0.4
CC(=O)O[C@H]1C(=O)[C@@]2(C)[C@H]([C@H](OC(=O)c3ccccc3)[C@]3(O)C[C@H](OC(=O)[C@H](O)[C@@H](NC(=O)c4ccccc4)c4ccccc4)C(C)=C1C3(C)C)[C@]1(OC(C)=O)CO[C@@H]1C[C@@H]2O [Paclitaxel]	16.3	4.1	-8	7.6	14	-5.6	-2.2	8.9	15.7	24.6	19.6	23	16.2
Cc1c(-c2c(-c3ccc(F)o3)sc3ncnc(O[C@H](Cc4ccccc4OCc4ccnn4CC(F)(F)F)C(=O)O)c23)ccc(OCCN2CCN(C)CC2)c1Cl	7	29.6	31.7	32.7	14.5	19.6	10.4	12.2	8.1	-11.5	11.6	9.2	28.5
COc1cc2nc(N3CCCN(C)CC3)nc(NC3CCN(Cc4ccccc4)CC3)c2cc1OC	-0.1	4	4	0.2	3.9	1.5	-1.1	6.4	1.2	0.7	-0.4	0	7.4
CC(=O)O[C@@]12CO[C@@H]1C[C@H](O)[C@@]1(C)C(=O)[C@H](O)C3=C(C)[C@@H](OC(=O)[C@H](O)[C@@H](NC(=O)OC(C)(C)C)c4ccccc4)C[C@@](O)([C@@H](OC(=O)c4ccccc4)[C@H]21)C3(C)C [Docetaxel]	20	6.8	-20.9	-0.1	17.1	2	-3.2	5.9	11.4	24.4	26.8	23.8	5.3
CC[C@@H]1C(=O)N(C)c2cnc(Nc3ccc(C(=O)N[C@H]4CC[C@H](N5CCN(CC6CC6)CC5)CC4)cc3OC)nc2N1C(C)C [Volasertib]	8.9	13.2	-2.3	-2.4	16.6	-3.8	4	0.5	4.5	10.3	16.1	9.4	2.9
COc1ccc(C(=O)CC2(O)C(=O)Nc3c(Cl)ccc(Cl)c32)cc1 (stereo not drawn) [YK-4-279]	3.1	1.9	-20.3	0.2	2.9	-2	-3	-3.2	-0.3	4.5	3.8	8.2	0
N.N.[Cl][Pt][Cl] [Cisplatin]						-2.4	-0.5	5.8	2.9	-1.1	-1.4	7.1	3.9
CC(C)(C)Cn1c(N)nc2ccc(-c3[nH]c(C(C)(C)C)nc3-c3ccc(F)cc3)nc21 [Ralimetinib]		6.3	13.4	-2.9			4.9	-2.2	-4.4	-5.3	-3.2	0	-4.3
O=C(O)C1(C(=O)O)CCC1.[NH2-].[NH2-].[Pt+2] [Carboplatin]	1.7	-1.6	-1.6		8.6	-1.2	-1.6	0.8	2.5	-0.3	-1.6	2.2	-0.9
CCn1cc(C(=O)O)c(=O)c2c(N)c(F)c(NC3CCCCC3)cc21	-0.9	-0.9	-0.9	-0.9	7.2		-0.9	-0.9	-0.9	-0.9	3.3	-0.9	-0.3
COc1ccc(-c2nc(N3CCOCC3)c3sc(CN(C)c4ncc(C(=O)NO)cn4)cc3n2)cn1 [Fimepinostat]	0.5	5.7	-0.5	1.5	8.8		-3.2	8.6	9.2	5.9	6.1	6	10.6
Cc1c(-c2ccc(N3CCc4cccc(C(=O)Nc5nc6ccccc6s5)c4C3)nc2C(=O)O)cnn1CC12CC3CC(CC(C3)C1)C2	-9.5				7.8	2.8					10.9		
CCN(CC)CCCC(C)Nc1ccnc2cc(Cl)ccc12 (stereo not drawn) [Chloroquine]		4.7	-3.8	0.3			5.3	3	1.4	-3.8	-2	-0.6	2.8
